This assay addresses T1, Carboxypeptidase A1 (Bos taurus, UniProt P00730).
T1 sequence (P00730 whole entry): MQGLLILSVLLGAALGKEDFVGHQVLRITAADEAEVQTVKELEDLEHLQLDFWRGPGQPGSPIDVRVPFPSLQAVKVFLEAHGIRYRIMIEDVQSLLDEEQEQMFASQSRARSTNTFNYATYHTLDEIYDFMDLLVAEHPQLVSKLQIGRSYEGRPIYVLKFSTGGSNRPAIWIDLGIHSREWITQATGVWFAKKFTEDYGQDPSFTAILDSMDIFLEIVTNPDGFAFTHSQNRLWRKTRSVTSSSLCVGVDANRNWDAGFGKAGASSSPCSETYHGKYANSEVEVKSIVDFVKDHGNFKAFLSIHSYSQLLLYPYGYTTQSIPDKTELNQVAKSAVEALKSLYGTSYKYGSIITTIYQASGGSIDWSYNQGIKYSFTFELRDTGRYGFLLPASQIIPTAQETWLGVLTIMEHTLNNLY
Kind of assay: Binding affinity against carboxypeptidase A using hippurylphenylalanine as substrate.
Regarding `O=C(O)C(CS)Cc1cc(F)c(F)c(F)c1` (configuration not stated), the inhibitory constant (Ki) (in general, a dissociation constant, usually derived from enzyme kinetics or from competition with a known ligand) is 590 nM.
Molecule `Cc1ccc(CC(CS)C(=O)O)cc1C` (configuration not stated) had a Ki of 492 nM.
The value for `O=C(O)C(CS)Cc1c(F)c(F)c(F)c(F)c1F` (configuration not stated) was 2300 nM.
For the molecule `O=C(O)C(CS)Cc1ccc(F)c(F)c1` (configuration not stated), the Ki stood at 250 nM.
Under `O=C(O)C(CS)CC1CCCCC1` (configuration not stated) stands 2350 nM; under `O=C(O)C(CS)Cc1ccc(F)cc1` (configuration not stated), 37 nM; under `O=C(O)C(CS)Cc1ccc2ccccc2c1` (configuration not stated), 200 nM.
Under `Cc1ccc(CC(CS)C(=O)O)cc1` (configuration not stated) stands 112 nM; under `CC(C)c1ccc(CC(CS)C(=O)O)cc1` (configuration not stated), 4500 nM; under `Cc1cccc(CC(CS)C(=O)O)c1C` (configuration not stated), 350 nM.
The value for `CC(C)(C)c1ccc(CC(CS)C(=O)O)cc1` (configuration not stated) was 7700 nM; that for `Cc1cccc(CC(CS)C(=O)O)c1` (configuration not stated) was 170 nM.
`O=C(O)C(CS)Cc1ccccc1F` (configuration not stated) gave an inhibitory constant (Ki) of 45 nM.
Consider `O=C(O)C(CS)Cc1cccc2ccccc12` (configuration not stated), for which the inhibition constant Ki worked out at 480 nM.
Molecule `O=C(O)C(CS)Cc1cccc(F)c1` (configuration not stated) returned a Ki of 35 nM.
The value for `Cc1ccccc1CC(CS)C(=O)O` (configuration not stated) was 120 nM; that for `O=C(O)C(CS)Cc1ccccc1` (configuration not stated) was 11 nM.
